Measurements published in patent publication US6677373B2, “Polymorphic B form of 3-(cyclopropylmethoxy)-4-[4-(methylsulfonyl)phenyl]-5,5-dimethyl-5H-furan-2-one” (Merial Limited, priority 1999, dated 2004).

Key:
Format in all cases: physicochemical
[1] = Solubility in methyltertiobutylether on recrystallization; details: solid at 6.3% weight in methyltertiobutylether
From the text: Recrystallization of polymorph A for purification purposes leaded to solubility problems in methyltertiobutylether.

[2] = Thermodynamic stability of the polymorphs, DSC (Differential Scanning Calorimetry); details: for thermodynamic stability: compared with Polymorph A, monotropic system according to Burger's rule
Description: an endothermal peak around 90-100° C. due to melting of A form,
an exothermal peak corresponding to the transition A→B,
an endothermal peak around 120° C. due to melting of B form,
a very small exothermal peak corresponding to the transition A→B,
an endothermal peak due to melting of B form.
Therefore, the transition A→B is under kinetic control as usual in case of polymorphism. The transition from A to B may also be followed by X-Ray under heating (FIG. 7).

[3] = Carr Index (compressibility index, flowability) of unmilled product
From the text: After crystallization and before micronization, the Carr Index of B form is lower than 10 (in %). The Carr Index CI is defined as: [formula] where P is the packed bulk density (g cm^−3), L is the loose bulk density (g cm^−3). CI is also know as a compressibility index. A low figure for CI corresponds to a high degree of flowability. The Carr Index way be calculated from Mercury Intrusion Porosimetry or measured by Tap—Tap.

## CC1(C)OC(=O)C(OCC2CC2)=C1c1ccc(S(C)(=O)=O)cc1 [3-(cyclopropylmethoxy)-4-(4-methylsulfonyl)phenyl-5,5-dimethylfuranone]
[1]
  solubility in methyltertiobutylether: could no longer be solubilised

## CC1(C)OC(=O)C(OCC2CC2)=C1c1ccc(S(C)(=O)=O)cc1 [Polymorph A, 3-(cyclopropylmethoxy)-4-[4-(methylsulfonyl)phenyl]-5,5-dimethyl-5H-furan-2-one]
[2]; depending on the heating rate (40° C./mn, 2° C./mn)
  behaviour when heated (DSC): transforms to form B
[3]; unmilled product, crystallisation process: Lab scale
  Carr Index: 26 to 27%
[3]; unmilled product, crystallisation process: Pilot scale
  Carr Index: 29 to 33%

## CC1(C)OC(=O)C(OCC2CC2)=C1c1ccc(S(C)(=O)=O)cc1 [Polymorph B, 3-(cyclopropylmethoxy)-4-[4-(methylsulfonyl)phenyl]-5,5-dimethyl-5H-furan-2-one]
[2]
  thermodynamic stability: thermodynamically more stable than Polymorph A
[2]; listed as B form
  thermodynamic stability: the most stable form
[3]; after crystallization and before micronization
  Carr Index: lower than 10%
[3]; compared with Polymorph A
  flow characteristics: better flow characteristics than Polymorph A
[3]; unmilled product, Recrystallisation in MTBE, Lab scale
  Carr Index: 2 to 3%
[3]; unmilled product, Recrystallisation in MTBE, Pilot scale
  Carr Index: 2 to 4%
